Data as given in the NIST ThermoML archive (doi:10.1016/j.jct.2018.02.001).

Tests used:
[1] = mn = molality of the nth substance listed, in mol/kg; conditions: 100 kPa, Liquid, Vibrating tube method
[2] = 101.33 kPa, Liquid, Vibrating tube method

CCCCCCCC[n+]1ccn(CC)c1.[Br-] [1-ethyl-3-octyl-1H-imidazolium bromide] + O
mass density [kg/m3], [1]
Conditions	293.15 K	298.15 K	303.15 K	308.15 K
m1 = 0.0128	998.68	997.48	995.95	994.18
m1 = 0.0143	998.75	997.55	996.03	994.25
m1 = 0.0149	998.78	997.58	996.06	994.27
m1 = 0.0171	998.87	997.68	996.14	994.36
m1 = 0.0206	999.02	997.83	996.29	994.5
m1 = 0.0216	999.07	997.87	996.33	994.55
m1 = 0.026	999.25	998.06	996.51	994.71
m1 = 0.0313	999.47	998.28	996.73	994.91
m1 = 0.0355	999.65	998.45	996.91	995.08
m1 = 0.0377	999.74	998.54	997	995.16
m1 = 0.0436	999.99	998.77	997.24	995.39

CCCCn1cc[n+](CCCC)c1.[Br-] [1,3-dibutylimidazolium bromide]
[2]
Conditions	mass density [kg/m3]
293.15 K	1197.07
298.15 K	1193.75
303.15 K	1190.32
308.15 K	1186.85
313.15 K	1183.34
318.15 K	1180.06
323.15 K	1176.52

CCCCCC[n+]1ccn(CC)c1.[Br-] [1-ethyl-3-hexyl-1H-imidazolium bromide] + O
mass density [kg/m3], [1]
Conditions	m1 = 0.0092	m1 = 0.012	m1 = 0.0168	m1 = 0.02	m1 = 0.0248	m1 = 0.0295	m1 = 0.0358	m1 = 0.0432	m1 = 0.0495
293.15 K	998.59	998.73	998.92	999.06	999.26	999.47	999.75	1000.07	1000.35
298.15 K	997.35	997.48	997.66	997.79	998	998.2	998.48	998.8	999.08
303.15 K	995.82	995.93	996.11	996.24	996.43	996.64	996.9	997.21	997.48
308.15 K	994.05	994.09	994.21	994.33	994.51	994.7	994.96	995.26	995.51
